Results published in ChEMBL document CHEMBL3769303, “Discovery of membrane active benzimidazole quinolones-based topoisomerase inhibitors as potential DNA-binding antimicrobial agents” (Eur J Med Chem, 2016).
≈ marks a conversion by molar mass, not a printed value.

Key:
Type in all cases: functional
Staphylococcus aureus [1] = test: Antibacterial activity against methicillin-resistant Staphylococcus aureus N315 by micro broth dilution method
Cyberlindnera jadinii = test: Antifungal activity against Candida utilis ATCC 9950 after 24 hrs by micro broth dilution method; conditions: Williopsis jadinii, ATCC 9950, 24 h
Micrococcus luteus = test: Antibacterial activity against Micrococcus luteus ATCC 4698 by micro broth dilution method; conditions: NCTC 2665
Escherichia coli [2] = test: Antibacterial activity against Escherichia coli JM109 by micro broth dilution method
[3] = Antifungal activity against Candida mycoderma ATCC 9888 after 24 hrs by micro broth dilution method; conditions: Candida vini
Bacillus spizizenii = test: Antibacterial activity against Bacillus subtilis ATCC 6633 by micro broth dilution method
Shigella dysenteriae = test: Antibacterial activity against Shigella dysenteriae by micro broth dilution method
Staphylococcus aureus [4] = test: Antibacterial activity against Staphylococcus aureus ATCC 25923 by micro broth dilution method
Saccharomyces cerevisiae = test: Antifungal activity against Saccharomyces cerevisiae ATCC 9763 after 24 hrs by micro broth dilution method; conditions: ATCC 9763, 24 h
Aspergillus flavus = test: Antifungal activity against Aspergillus flavus ATCC 204304 after 24 hrs by micro broth dilution method; conditions: ATCC 204304, 24 h
Pseudomonas aeruginosa = test: Antibacterial activity against Pseudomonas aeruginosa ATCC 27853 by micro broth dilution method
Escherichia coli [5] = test: Antibacterial activity against Escherichia coli DH52 by micro broth dilution method
Salmonella enterica = test: Antibacterial activity against Salmonella enterica ATCC 14028 by micro broth dilution method
[6] = Antibacterial activity against Bacillus proteus ATCC 13315 by micro broth dilution method
Candida albicans = test: Antifungal activity against Candida albicans ATCC 10231 after 24 hrs by micro broth dilution method; conditions: ATCC 10231, 24 h

CCCCCCCCCCCCn1c(CN2CCN(c3cc4c(cc3F)c(=O)c(C(=O)O)cn4CC)CC2)nc2ccccc21
MIC (Staphylococcus aureus [1]): 256 µg/mL (≈ 414 µM) | MIC80 (Cyberlindnera jadinii): 64 µg/mL (≈ 104 µM) | MIC (Micrococcus luteus): 256 µg/mL (≈ 414 µM) | MIC (Escherichia coli [2]): 512 µg/mL (≈ 829 µM) | MIC80 [3]: 128 µg/mL (≈ 207 µM) | MIC (Bacillus spizizenii): 128 µg/mL (≈ 207 µM) | MIC (Shigella dysenteriae): 256 µg/mL (≈ 414 µM) | MIC (Staphylococcus aureus [4]): 128 µg/mL (≈ 207 µM) | MIC80 (Saccharomyces cerevisiae): 256 µg/mL (≈ 414 µM) | MIC80 (Aspergillus flavus): 64 µg/mL (≈ 104 µM) | MIC (Pseudomonas aeruginosa): 256 µg/mL (≈ 414 µM) | MIC (Escherichia coli [5]): 256 µg/mL (≈ 414 µM) | MIC (Salmonella enterica): 256 µg/mL (≈ 414 µM) | MIC [6]: 256 µg/mL (≈ 414 µM) | MIC80 (Candida albicans): 128 µg/mL (≈ 207 µM)

CCn1cc(C(=O)O)c(=O)c2cc(F)c(N3CCN(c4nc5ccccc5[nH]4)CC3)cc21
MIC (Staphylococcus aureus [1]): 4 µg/mL (≈ 9.19 µM) | MIC80 (Cyberlindnera jadinii): 8 µg/mL (≈ 18.4 µM) | MIC (Micrococcus luteus): 4 µg/mL (≈ 9.19 µM) | MIC (Escherichia coli [2]): 8 µg/mL (≈ 18.4 µM) | MIC80 [3]: 16 µg/mL (≈ 36.7 µM) | MIC (Bacillus spizizenii): 2 µg/mL (≈ 4.59 µM) | MIC (Shigella dysenteriae): 4 µg/mL (≈ 9.19 µM) | MIC (Staphylococcus aureus [4]): 2 µg/mL (≈ 4.59 µM) | MIC80 (Saccharomyces cerevisiae): 32 µg/mL (≈ 73.5 µM) | MIC80 (Aspergillus flavus): 16 µg/mL (≈ 36.7 µM) | MIC (Pseudomonas aeruginosa): 2 µg/mL (≈ 4.59 µM) | MIC (Escherichia coli [5]): 2 µg/mL (≈ 4.59 µM) | MIC (Salmonella enterica): 2 µg/mL (≈ 4.59 µM) | MIC [6]: 1 µg/mL (≈ 2.3 µM) | MIC80 (Candida albicans): 8 µg/mL (≈ 18.4 µM)

CCn1cc(C(=O)O)c(=O)c2cc(F)c(N3CCN(Cc4nc5ccccc5n4CC)CC3)cc21
MIC (Staphylococcus aureus [1]): 8 µg/mL (≈ 16.8 µM) | MIC80 (Cyberlindnera jadinii): 8 µg/mL (≈ 16.8 µM) | MIC (Micrococcus luteus): 4 µg/mL (≈ 8.38 µM) | MIC (Escherichia coli [2]): 32 µg/mL (≈ 67 µM) | MIC80 [3]: 0.25 µg/mL (≈ 0.524 µM) | MIC (Bacillus spizizenii): 2 µg/mL (≈ 4.19 µM) | MIC (Shigella dysenteriae): 128 µg/mL (≈ 268 µM) | MIC (Staphylococcus aureus [4]): 128 µg/mL (≈ 268 µM) | MIC80 (Saccharomyces cerevisiae): 64 µg/mL (≈ 134 µM) | MIC80 (Aspergillus flavus): 32 µg/mL (≈ 67 µM) | MIC (Pseudomonas aeruginosa): 32 µg/mL (≈ 67 µM) | MIC (Escherichia coli [5]): 4 µg/mL (≈ 8.38 µM) | MIC (Salmonella enterica): 0.5 µg/mL (≈ 1.05 µM) | MIC [6]: 1 µg/mL (≈ 2.09 µM) | MIC80 (Candida albicans): 4 µg/mL (≈ 8.38 µM)

COC(=O)c1cn(C2CC2)c2cc(N3CCN(/C=N\c4nc5ccccc5[nH]4)CC3)c(F)cc2c1=O
MIC (Staphylococcus aureus [1]): 64 µg/mL (≈ 131 µM) | MIC80 (Cyberlindnera jadinii): 8 µg/mL (≈ 16.4 µM) | MIC (Micrococcus luteus): 4 µg/mL (≈ 8.19 µM) | MIC (Escherichia coli [2]): 8 µg/mL (≈ 16.4 µM) | MIC80 [3]: 16 µg/mL (≈ 32.8 µM) | MIC (Bacillus spizizenii): 2 µg/mL (≈ 4.09 µM) | MIC (Shigella dysenteriae): 8 µg/mL (≈ 16.4 µM) | MIC (Staphylococcus aureus [4]): 32 µg/mL (≈ 65.5 µM) | MIC80 (Saccharomyces cerevisiae): 2 µg/mL (≈ 4.09 µM) | MIC80 (Aspergillus flavus): 4 µg/mL (≈ 8.19 µM) | MIC (Pseudomonas aeruginosa): 2 µg/mL (≈ 4.09 µM) | MIC (Escherichia coli [5]): 8 µg/mL (≈ 16.4 µM) | MIC (Salmonella enterica): 4 µg/mL (≈ 8.19 µM) | MIC [6]: 4 µg/mL (≈ 8.19 µM) | MIC80 (Candida albicans): 32 µg/mL (≈ 65.5 µM)

CCn1cc(C(=O)O)c(=O)c2cc(F)c(N3CCN(Cc4nc5ccccc5[nH]4)CC3)cc21
MIC (Staphylococcus aureus [1]): 1 µg/mL (≈ 2.22 µM) | MIC80 (Cyberlindnera jadinii): 0.5 µg/mL (≈ 1.11 µM) | MIC (Micrococcus luteus): 1 µg/mL (≈ 2.22 µM) | MIC (Escherichia coli [2]): 4 µg/mL (≈ 8.9 µM) | MIC80 [3]: 1 µg/mL (≈ 2.22 µM) | MIC (Bacillus spizizenii): 1 µg/mL (≈ 2.22 µM) | MIC (Shigella dysenteriae): 2 µg/mL (≈ 4.45 µM) | MIC (Staphylococcus aureus [4]): 2 µg/mL (≈ 4.45 µM) | MIC80 (Saccharomyces cerevisiae): 0.5 µg/mL (≈ 1.11 µM) | MIC80 (Aspergillus flavus): 0.5 µg/mL (≈ 1.11 µM) | MIC (Pseudomonas aeruginosa): 1 µg/mL (≈ 2.22 µM) | MIC (Escherichia coli [5]): 0.5 µg/mL (≈ 1.11 µM) | MIC (Salmonella enterica): 0.5 µg/mL (≈ 1.11 µM) | MIC [6]: 0.5 µg/mL (≈ 1.11 µM) | MIC80 (Candida albicans): 0.5 µg/mL (≈ 1.11 µM)

CCn1cc(C(=O)O)c(=O)c2cc(F)c(N3CCN(Cc4nc5ccccc5n4Cc4ccccc4F)CC3)cc21
MIC (Staphylococcus aureus [1]): 256 µg/mL (≈ 459 µM) | MIC80 (Cyberlindnera jadinii): 512 µg/mL (≈ 918 µM) | MIC (Micrococcus luteus): 512 µg/mL (≈ 918 µM) | MIC (Escherichia coli [2]): 512 µg/mL (≈ 918 µM) | MIC80 [3]: 512 µg/mL (≈ 918 µM) | MIC (Bacillus spizizenii): 128 µg/mL (≈ 230 µM) | MIC (Shigella dysenteriae): 512 µg/mL (≈ 918 µM) | MIC (Staphylococcus aureus [4]): 512 µg/mL (≈ 918 µM) | MIC80 (Saccharomyces cerevisiae): 512 µg/mL (≈ 918 µM) | MIC80 (Aspergillus flavus): 512 µg/mL (≈ 918 µM) | MIC (Pseudomonas aeruginosa): 512 µg/mL (≈ 918 µM) | MIC (Escherichia coli [5]): 512 µg/mL (≈ 918 µM) | MIC (Salmonella enterica): 512 µg/mL (≈ 918 µM) | MIC [6]: 512 µg/mL (≈ 918 µM) | MIC80 (Candida albicans): 512 µg/mL (≈ 918 µM)

CCCCCCCCn1c(CN2CCN(c3cc4c(cc3F)c(=O)c(C(=O)O)cn4C3CC3)CC2)nc2ccccc21
MIC (Staphylococcus aureus [1]): 1 µg/mL (≈ 1.74 µM) | MIC80 (Cyberlindnera jadinii): 2 µg/mL (≈ 3.49 µM) | MIC (Micrococcus luteus): 1 µg/mL (≈ 1.74 µM) | MIC (Escherichia coli [2]): 2 µg/mL (≈ 3.49 µM) | MIC80 [3]: 1 µg/mL (≈ 1.74 µM) | MIC (Bacillus spizizenii): 32 µg/mL (≈ 55.8 µM) | MIC (Shigella dysenteriae): 4 µg/mL (≈ 6.97 µM) | MIC (Staphylococcus aureus [4]): 16 µg/mL (≈ 27.9 µM) | MIC80 (Saccharomyces cerevisiae): 16 µg/mL (≈ 27.9 µM) | MIC80 (Aspergillus flavus): 1 µg/mL (≈ 1.74 µM) | MIC (Pseudomonas aeruginosa): 1 µg/mL (≈ 1.74 µM) | MIC (Escherichia coli [5]): 0.5 µg/mL (≈ 0.872 µM) | MIC (Salmonella enterica): 4 µg/mL (≈ 6.97 µM) | MIC [6]: 0.5 µg/mL (≈ 0.872 µM) | MIC80 (Candida albicans): 1 µg/mL (≈ 1.74 µM)

CCCCCCn1c(CN2CCN(c3cc4c(cc3F)c(=O)c(C(=O)O)cn4CC)CC2)nc2ccccc21
MIC (Staphylococcus aureus [1]): 32 µg/mL (≈ 60 µM) | MIC80 (Cyberlindnera jadinii): 32 µg/mL (≈ 60 µM) | MIC (Micrococcus luteus): 4 µg/mL (≈ 7.5 µM) | MIC (Escherichia coli [2]): 64 µg/mL (≈ 120 µM) | MIC80 [3]: 8 µg/mL (≈ 15 µM) | MIC (Bacillus spizizenii): 16 µg/mL (≈ 30 µM) | MIC (Shigella dysenteriae): 32 µg/mL (≈ 60 µM) | MIC (Staphylococcus aureus [4]): 256 µg/mL (≈ 480 µM) | MIC80 (Saccharomyces cerevisiae): 128 µg/mL (≈ 240 µM) | MIC80 (Aspergillus flavus): 128 µg/mL (≈ 240 µM) | MIC (Pseudomonas aeruginosa): 16 µg/mL (≈ 30 µM) | MIC (Escherichia coli [5]): 4 µg/mL (≈ 7.5 µM) | MIC (Salmonella enterica): 8 µg/mL (≈ 15 µM) | MIC [6]: 4 µg/mL (≈ 7.5 µM) | MIC80 (Candida albicans): 16 µg/mL (≈ 30 µM)

O=C(O)c1cn(C2CC2)c2cc(N3CCN(CCc4nc5ccccc5[nH]4)CC3)c(F)cc2c1=O
MIC (Staphylococcus aureus [1]): 4 µg/mL (≈ 8.41 µM) | MIC80 (Cyberlindnera jadinii): 4 µg/mL (≈ 8.41 µM) | MIC (Micrococcus luteus): 1 µg/mL (≈ 2.1 µM) | MIC (Escherichia coli [2]): 2 µg/mL (≈ 4.21 µM) | MIC80 [3]: 2 µg/mL (≈ 4.21 µM) | MIC (Bacillus spizizenii): 128 µg/mL (≈ 269 µM) | MIC (Shigella dysenteriae): 0.5 µg/mL (≈ 1.05 µM) | MIC (Staphylococcus aureus [4]): 4 µg/mL (≈ 8.41 µM) | MIC80 (Saccharomyces cerevisiae): 1 µg/mL (≈ 2.1 µM) | MIC80 (Aspergillus flavus): 1 µg/mL (≈ 2.1 µM) | MIC (Pseudomonas aeruginosa): 0.5 µg/mL (≈ 1.05 µM) | MIC (Escherichia coli [5]): 4 µg/mL (≈ 8.41 µM) | MIC (Salmonella enterica): 1 µg/mL (≈ 2.1 µM) | MIC [6]: 2 µg/mL (≈ 4.21 µM) | MIC80 (Candida albicans): 2 µg/mL (≈ 4.21 µM)

O=C(O)c1cn(C2CC2)c2cc(N3CCN(CNc4nc5ccccc5[nH]4)CC3)c(F)cc2c1=O
MIC (Staphylococcus aureus [1]): 0.25 µg/mL (≈ 0.525 µM) | MIC80 (Cyberlindnera jadinii): 8 µg/mL (≈ 16.8 µM) | MIC (Micrococcus luteus): 1 µg/mL (≈ 2.1 µM) | MIC (Escherichia coli [2]): 4 µg/mL (≈ 8.39 µM) | MIC80 [3]: 0.5 µg/mL (≈ 1.05 µM) | MIC (Bacillus spizizenii): 1 µg/mL (≈ 2.1 µM) | MIC (Shigella dysenteriae): 0.25 µg/mL (≈ 0.525 µM) | MIC (Staphylococcus aureus [4]): 1 µg/mL (≈ 2.1 µM) | MIC80 (Saccharomyces cerevisiae): 4 µg/mL (≈ 8.39 µM) | MIC80 (Aspergillus flavus): 16 µg/mL (≈ 33.6 µM) | MIC (Pseudomonas aeruginosa): 0.5 µg/mL (≈ 1.05 µM) | MIC (Escherichia coli [5]): 1 µg/mL (≈ 2.1 µM) | MIC (Salmonella enterica): 1 µg/mL (≈ 2.1 µM) | MIC [6]: 1 µg/mL (≈ 2.1 µM) | MIC80 (Candida albicans): 1 µg/mL (≈ 2.1 µM)
